Molecular target: T1, FOYE-1 (Ferrovum sp. JA12, UniProt A0A0R0LNE8)
T1 sequence (A0A0R0LNE8 1-354): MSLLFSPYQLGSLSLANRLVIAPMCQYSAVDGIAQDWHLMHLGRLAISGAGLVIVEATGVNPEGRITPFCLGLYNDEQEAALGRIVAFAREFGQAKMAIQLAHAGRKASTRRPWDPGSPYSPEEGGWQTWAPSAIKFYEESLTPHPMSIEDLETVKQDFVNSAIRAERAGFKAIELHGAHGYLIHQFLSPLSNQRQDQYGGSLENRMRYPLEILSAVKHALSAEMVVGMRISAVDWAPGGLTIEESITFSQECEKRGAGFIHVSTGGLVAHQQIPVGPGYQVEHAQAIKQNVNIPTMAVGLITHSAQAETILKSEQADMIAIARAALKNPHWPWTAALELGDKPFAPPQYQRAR
Assay: FMN quantification at […] nm in purified protein
Type: binding
Details: co-purified flavin cofactor; partly saturated holoprotein

Cc1cc2nc3c(=O)[nH]c(=O)nc-3n(C[C@H](O)[C@H](O)[C@H](O)COP(=O)(O)O)c2cc1C [FMN]
FMN saturation: found to be only partially saturated with the flavin mononucleotide (FMN) cofactor

Reference: article PMC7216909 (Chembiochem, 2020)
